# Assays:
# [1] = tested on: HeLa cells; assay: Caspase activity in HeLa cells (Caspase-Glo); format: cell-based, human; details: 48 h
# Experimental: Thus one aspect of the invention is the use of DNMDP for the treatment of lung adenocarcinoma and cervical cancer.
# 1000 HeLa cells were plated in 384-well plate in 40 μl of corresponding growth media supplemented with 10% Fetal Bovine Serum. 24 hours after plating, indicated compounds were added at indicated concentrations and incubated for 48 hours. Caspase-Glo from Promega was added according to the manufacturers recommendations and luminescence was determined as described in Compound library screening in NCI-H1734 and A549 cell lines.
# [2] = tested on: HeLa cells; assay: Compound sensitivity testing in cell lines (cell viability, 48 h); format: cell-based, human; details: 48 h
# Experimental: (§1) 1500 NCI-H1734 or 1000 A549 cells were plated in a 384-well plate in 40 μl of RPMI supplemented with 10% Fetal Bovine Serum and 1% Pen/Strep. 24 hours after plating, a compound-library of 1924 small molecules was added at a concentration of 10 μM. Staurosporine was used a positive control for cytotoxicity at a concentration of 10 μM, and DMSO was used a negative control at a concentration of 1%. All compounds were incubated for 48 hours with indicated small molecules. After 48 hours, 384-well plates were removed from the incubator and allowed to cool to room temperature for 20 minutes. Cell viability was assessed by adding 40 μl of a 25% CELLTITERGLO® (Promega) in PBS with a THERMO COMBI™ or multichannel-pipette and incubated for 10 minutes. The luminescence signal was read using a Perkin-Elmer EnVision. Viability percentage was calculated by normalizing to DMSO controls.
# 1000 HeLa (DMEM), 1000 A549 (RPMI), 500 MCF-7 (DMEM), 4000 PC3 (F12-K), 1000 NCI-H2122 (RPMI) or 1500 NCI-H1563 (RPMI) cells were plated in a 384-well plate in 40 μl of corresponding growth media supplemented with 10% Fetal Bovine Serum. 24 hours after plating, indicated compounds were added at indicated concentrations and incubated for 48 hours. Cell viability was assessed as described in Compound library screening in NCI-H1734 and A549 cell lines.
# [3] = tested on: NCI-H1734; assay: Compound library screening in NCI-H1734 and A549 cell lines; format: cell-based, human; details: NCI-H1734 versus A549, 48 h
# Experimental: To identify anti-cancer compounds with cell-selective cytotoxic activity, an unbiased chemical screen was performed in two lung adenocarcinoma cell lines, A549 and NCI-H1734, both of which harbor oncogenic KRAS mutations and truncating STK11 mutations, and which were TP53 wild type and mutant (R273L), respectively. 1,924 compounds were screened from the Molecular Libraries Small-Molecule Repository validation set in the A549 and NCI-H1734 cell lines at a single concentration of 10 μM in 384-well format in duplicate. As a proxy for cellular viability, ATP content was measured after 48 hours of compound treatment.
# as §1, with “After 48 hours, 384-well plates were removed from the incubator and allowed to cool to room temperature for 20 minutes.” left out
# [4] = biological target: T1, PDE3A(677-1141) (Homo sapiens, UniProt Q14432); assay: Differential scanning fluorimetry (DSF) binding to purified PDE3A catalytic domain; details: 5 μM PDE3A, 100 μM compound
# T1 construct: purified PDE3A catalytic domain, PDE3A(677-1141)
# T1 sequence (Q14432 677-1141): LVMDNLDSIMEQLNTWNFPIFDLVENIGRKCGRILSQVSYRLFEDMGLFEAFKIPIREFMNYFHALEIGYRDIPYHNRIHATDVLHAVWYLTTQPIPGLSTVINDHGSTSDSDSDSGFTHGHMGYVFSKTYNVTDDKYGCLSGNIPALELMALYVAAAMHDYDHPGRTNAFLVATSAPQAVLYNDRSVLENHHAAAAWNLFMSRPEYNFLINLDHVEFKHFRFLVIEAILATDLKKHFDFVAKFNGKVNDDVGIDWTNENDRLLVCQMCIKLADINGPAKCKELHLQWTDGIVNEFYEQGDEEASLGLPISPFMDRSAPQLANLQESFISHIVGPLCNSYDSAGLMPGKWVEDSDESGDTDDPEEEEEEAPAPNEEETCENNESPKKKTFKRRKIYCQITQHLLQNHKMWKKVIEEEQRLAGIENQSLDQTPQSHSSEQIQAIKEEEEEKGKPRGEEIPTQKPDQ
# Experimental: Binding buffer: 20 mM Hepes pH 7.4, 100 μM TCEP, 1 mM MgCl2, 150 mM NaCl.
# [5] = biological target: T2, PDE3A and SLFN12 complex (Homo sapiens, UniProt Q14432); assay: DNMDP-induced PDE3A protein interactions by immunoprecipitation and immunoblotting; format: cell-based; details: HeLa cells, 10 μM, 4 hours
# T2 construct: Immunoprecipitation of endogenous PDE3A in HeLa cells treated with DNMDP; host or cells: HeLa
# T2 sequence (Q14432 whole entry): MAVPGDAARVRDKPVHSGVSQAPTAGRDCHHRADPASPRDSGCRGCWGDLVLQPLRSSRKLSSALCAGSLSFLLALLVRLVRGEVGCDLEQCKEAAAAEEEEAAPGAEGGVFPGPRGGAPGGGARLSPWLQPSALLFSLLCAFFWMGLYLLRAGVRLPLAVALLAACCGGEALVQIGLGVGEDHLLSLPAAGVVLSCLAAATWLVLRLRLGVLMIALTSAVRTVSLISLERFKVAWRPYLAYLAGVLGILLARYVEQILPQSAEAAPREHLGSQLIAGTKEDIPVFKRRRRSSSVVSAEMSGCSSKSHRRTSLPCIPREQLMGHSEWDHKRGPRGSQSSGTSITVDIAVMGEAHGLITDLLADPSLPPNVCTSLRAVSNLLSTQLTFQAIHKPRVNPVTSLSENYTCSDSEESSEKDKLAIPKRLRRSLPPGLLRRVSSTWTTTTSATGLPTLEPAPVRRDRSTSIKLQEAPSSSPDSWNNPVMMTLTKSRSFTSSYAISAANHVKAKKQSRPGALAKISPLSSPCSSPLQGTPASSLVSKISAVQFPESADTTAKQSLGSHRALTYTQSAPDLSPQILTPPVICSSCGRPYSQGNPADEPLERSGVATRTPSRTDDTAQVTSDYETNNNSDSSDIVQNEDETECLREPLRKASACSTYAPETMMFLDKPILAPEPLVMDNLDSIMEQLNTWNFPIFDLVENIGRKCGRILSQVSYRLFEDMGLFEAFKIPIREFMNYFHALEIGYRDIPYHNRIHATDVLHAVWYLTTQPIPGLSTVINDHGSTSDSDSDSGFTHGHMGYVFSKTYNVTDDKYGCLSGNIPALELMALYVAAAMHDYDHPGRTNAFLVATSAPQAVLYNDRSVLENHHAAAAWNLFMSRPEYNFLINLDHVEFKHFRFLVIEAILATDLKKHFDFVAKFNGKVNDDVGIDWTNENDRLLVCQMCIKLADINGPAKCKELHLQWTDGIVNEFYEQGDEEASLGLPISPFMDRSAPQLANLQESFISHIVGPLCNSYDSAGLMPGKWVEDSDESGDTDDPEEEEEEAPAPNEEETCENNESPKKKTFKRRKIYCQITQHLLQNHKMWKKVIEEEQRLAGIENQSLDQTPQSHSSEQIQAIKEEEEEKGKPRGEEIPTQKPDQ
# T2 sequence (Q8IYM2 whole entry partner): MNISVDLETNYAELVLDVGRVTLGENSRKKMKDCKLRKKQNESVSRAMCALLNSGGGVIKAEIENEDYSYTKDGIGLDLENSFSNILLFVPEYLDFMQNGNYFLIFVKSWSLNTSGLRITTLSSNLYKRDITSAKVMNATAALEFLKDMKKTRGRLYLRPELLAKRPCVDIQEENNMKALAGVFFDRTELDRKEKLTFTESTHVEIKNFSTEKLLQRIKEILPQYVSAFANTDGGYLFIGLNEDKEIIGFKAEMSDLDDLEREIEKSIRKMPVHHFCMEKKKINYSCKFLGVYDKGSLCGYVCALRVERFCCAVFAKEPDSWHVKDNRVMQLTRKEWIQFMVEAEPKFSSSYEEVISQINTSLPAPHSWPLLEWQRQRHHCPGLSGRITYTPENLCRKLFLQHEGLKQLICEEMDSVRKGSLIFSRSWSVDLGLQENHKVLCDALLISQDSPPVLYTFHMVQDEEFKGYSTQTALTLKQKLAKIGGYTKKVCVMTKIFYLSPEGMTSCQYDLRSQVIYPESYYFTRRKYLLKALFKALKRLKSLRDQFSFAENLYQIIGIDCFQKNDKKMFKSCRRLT
# Text: Binding of DNMDP altered the composition of interacting proteins that were co-immunoprecipitated with PDE3A. […] These proteins specifically interacted with PDE3A in the presence of DNMDP, and were not observed in the trequinsin treated control, whereas a known PDE3B interactor, abhydrolase domain-containing protein 15 (ABHD15, Chavez et al., Biochem. Biophys. Res. Commun. 342, 1218-1222, 2006), was enriched in the immunoprecipitate from trequinsin-treated cells (FIG. 13C and FIG. 14C). The interaction promoted by DNMDP between PDE3A and both SIRT7 and SLFN12 was validated with affinity reagents. Immunoprecipitation of endogenous PDE3A in HeLa cells treated with DNMDP, but not DMSO or trequinsin, enhanced complex formation of ectopically expressed V5-tagged SIRT7 and SLFN12 with PDE3A, as evidenced by coimmunoprecipitation (FIG. 19). […] Without being bound to theory, PDE3A/SLFN12 complex formation correlated with cell killing (FIGS. 21A-21C).
# HeLa cells were transfected with ORF overexpression constructs expressing V5-tagged SIRT7, V5-tagged SLFN12, or V5-tagged GFP. ORF expression constructs were obtained from the TRC (clone IDs: TRCN0000468231, TRCN0000476272, ccsbBroad304_99997). At 72 hours post transfection, cells were treated with 10 μM DNMDP or trequinsin for 4 hours followed by lysis using the ModRipa lysis buffer and immunoprecipitation of PDE3A. […]
# [6] = biological target: T3, PDE3B (Homo sapiens, UniProt Q13370); assay: PDE3B enzyme inhibition (reported with the 3H-cAMP SPA method); format: biochemical
# T3 construct: Caliper (ran the assay)
# T3 sequence (Q13370 whole entry, species assumed): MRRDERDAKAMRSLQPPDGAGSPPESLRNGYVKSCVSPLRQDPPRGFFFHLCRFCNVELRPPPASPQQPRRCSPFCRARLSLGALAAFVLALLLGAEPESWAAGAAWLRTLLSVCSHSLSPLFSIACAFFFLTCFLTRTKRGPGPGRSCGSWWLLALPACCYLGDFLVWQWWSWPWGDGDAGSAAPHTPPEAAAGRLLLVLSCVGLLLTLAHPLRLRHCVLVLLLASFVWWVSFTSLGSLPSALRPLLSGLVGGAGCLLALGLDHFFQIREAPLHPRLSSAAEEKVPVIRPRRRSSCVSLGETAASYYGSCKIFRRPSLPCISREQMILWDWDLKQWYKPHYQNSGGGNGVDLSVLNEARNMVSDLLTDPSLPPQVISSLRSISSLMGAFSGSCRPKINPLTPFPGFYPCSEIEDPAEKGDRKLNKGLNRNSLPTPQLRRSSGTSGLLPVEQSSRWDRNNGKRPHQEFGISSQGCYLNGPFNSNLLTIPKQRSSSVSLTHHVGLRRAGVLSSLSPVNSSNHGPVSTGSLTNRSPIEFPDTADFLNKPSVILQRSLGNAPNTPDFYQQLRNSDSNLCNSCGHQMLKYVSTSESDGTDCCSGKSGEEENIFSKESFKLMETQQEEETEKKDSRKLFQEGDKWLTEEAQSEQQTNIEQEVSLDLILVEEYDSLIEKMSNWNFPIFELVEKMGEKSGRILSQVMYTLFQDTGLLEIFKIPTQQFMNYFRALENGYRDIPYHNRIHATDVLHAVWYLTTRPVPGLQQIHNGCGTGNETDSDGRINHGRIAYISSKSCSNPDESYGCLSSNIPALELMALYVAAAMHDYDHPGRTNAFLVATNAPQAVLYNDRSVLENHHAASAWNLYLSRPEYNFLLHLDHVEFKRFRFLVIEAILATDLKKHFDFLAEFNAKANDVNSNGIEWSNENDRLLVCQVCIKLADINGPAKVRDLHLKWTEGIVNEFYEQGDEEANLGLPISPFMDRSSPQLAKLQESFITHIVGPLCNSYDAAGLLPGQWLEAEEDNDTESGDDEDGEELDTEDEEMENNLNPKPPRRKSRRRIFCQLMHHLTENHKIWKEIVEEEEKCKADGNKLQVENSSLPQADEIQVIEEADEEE
# [7] = biological target: T4, human full length PDE3A (Homo sapiens, UniProt Q14432); assay: PDE3A enzyme inhibition (3H-cAMP Scintillation Proximity Assay); format: biochemical; details: Sf9 cell extract, 60 min
# T4 construct: Sf9 cells overexpressing human full length PDE3A (SB Drug Discovery, UK); purchased SB Drug Discovery, UK; host or cells: Sf9
# T4 sequence (Q14432 whole entry): as the sequence (Q14432 whole entry) above
# Experimental: The commercially available ^3H-cAMP Scintillation Proximity Assay (SPA, Perkin Elmer) system was used for enzyme inhibition studies. For the determination of the in vitro effect of test substances on the PDE3A reactions 2 μl of the respective test compound solution in DMSO (serial dilutions) were placed in wells of microtiter plates (Isoplate-96/200W; Perkin Elmer). 50 μl of a dilution of PDE3A cell extract from Sf9 cells overexpressing human full length PDE3A (SB Drug Discovery, UK) in buffer A (50 mM Tris/HCl pH 7.5, 8.3 mM MgCl2, 1.7 mM EDTA, 0.2% BSA) was added. The dilution of the PDE3A cell extract was chosen such that the reaction kinetics was linear and less than 70% of the substrate was consumed (typical dilution 1:5000). The reaction was started by addition of 50 μl (0.025 μCi) of 1:2000 in buffer A w/o BSA diluted substrate [8-^3H] adenosine 3′, 5′-cyclic phosphate (1 μCi/μl; Perkin Elmer). After incubation at room temperature for 60 min, the reaction was stopped by addition of 25 μl of a suspension containing 18 mg/ml yttrium scintillation proximity beads (Perkin Elmer) in water. The microtiter plates were sealed and measured in a Microbeta scintillation counter (PerkinElmer Wallac). IC50 values were determined from sigmoidal curves by plotting percentage PDE3A activity vs log compound concentration.
# [8] = In vitro metabolic stability in cryopreserved human hepatocytes; format: in vitro ADME; details: 1 μM test compound
# Experimental: Investigation of In Vitro Metabolic Stability in Cryopreserved Human Hepatocytes (Including Calculation of Hepatic In Vivo Blood Clearance (CL) and Maximal Oral Bioavailability (Fmax))
# Cryopreserved Hepatocytes (e.g. purchased from Celsis InVitroTechnologies) were briefly thawed, washed with 45 mL pre-warmed in in vitro GRO HT medium and centrifuged for 5 min at 50×g. The cell pellet was resuspended in 5 ml of Krebs-Henseleit […] (KHB). Cell viability was determined by trypan blue exclusion.
# For the metabolic stability assay liver cells were distributed in WME containing 5% FCS to glass vials at a density of 1.0×10^6 vital cells/ml. The test compound was added to a final concentration of 1 μM. During incubation, the hepatocyte suspensions were continuously shaken at 580 rpm and aliquots were taken at 2, 8, 16, 30, 45 and 90 min, to which equal volumes of cold methanol were immediately added. Samples were frozen at −20° C. over night, after subsequently centrifuged for 15 minutes at 3000 rpm and the supernatant was analyzed with an Agilent 1290 HPLC-system with LCMS/MS detection.
# The half-life of a test compound was determined from the concentration-time plot. From the half-life the intrinsic clearances were calculated. […] The hepatic in vivo blood clearance (CL) and the maximal oral bioavailability (Fmax) was calculated.
# [9] = tested on: HeLa; assay: Cell proliferation measurement (Cell Titer Glo, 72 h); format: cell-based; details: Homo sapiens, cervical cancer
# Experimental: (§2) The antiproliferative activity of the compounds of the general formula (I) was examined in vitro in human cancer cells. For this purpose, 1000 cells were plated in 384-well plates with appropriate growth medium and incubated at 37° C. overnight. After 24 h, cells on one plate (0 h plate) were treated with 30 μl/cavity of CTG solution (Promega Cell Titer Glo (catalogue #G755B and G756B)) and incubated at room temperature for 10 min, and luminescence was measured by means of a VICTOR V (Perkin Elmer), in order to determine cell viability on commencement of treatment. The cells on the test plate were treated with the compounds of the general formula (I) as and incubated at 37° C. for 72 h. The compounds were added to the cells by means of an HP D300 digital dispenser in a 10-step 2,5-fold dilution series. As control, the cells were treated with vehicle (DMSO at 0.3% final concentration). After 72 h, the cells were treated with 30 μl/cavity of CTG solution (Promega Cell Titer Glo (catalogue #G755B and G756B)) and incubated at room temperature for 10 min, and luminescence was measured by means of a VICTOR V (Perkin Elmer), in order to determine cell viability at the end of treatment. The percentage effect on cell growth and the IC50 derived therefrom were determined for each test substance using the values from the 0 h plate (=maximum inhibition) and the DMSO control (=minimum inhibition). The IC50 values were calculated using a 4-parameter fit.
# [10] = tested on: SKMEL3; assay: as above; format: cell-based; details: Homo sapiens, SK-MEL3, SKMEL3, melanoma
# Experimental: as §2
# [11] = tested on: A549; assay: as above; format: cell-based; details: Homo sapiens, A549, lung adenocarcinoma
# Experimental: as §2
Tm [4],IC50 [6],IC50 [7],mean metabolic stability (Fmax) [8],EC50 ([2]; Homo sapiens),IC50 [9],IC50 [10],IC50 [11],SMILES,caspase activity (apoptosis) [1],EC70 HeLa cell viability [2],selective toxicity in dose-response retest (in words) [3],PDE3A and SLFN12 complex formation [5]
58.4 ± 0.0 °C,,,,,,,,"CCN(CC)c1ccc(C2=NNC(=O)CC2C)cc1[N+](=O)[O-] (stereo not drawn) [DNMDP, 6-(4-(diethylamino)-3-nitrophenyl)-5-methyl-4,5-dihydropyridazin-3(2H)-one]",Caspase activity was detected,30 nM,specifically toxic to the NCI-H1734 cell line,induced PDE3A and SFLN12 complex formation
,3.4 nM,2.4 nM,93%,1.1 nM,0.327 nM,0.441 nM,> 600 nM,"C[C@@H]1CC(=O)NN=C1c1cc(F)c(N2CCOCC2)c(Cl)c1 [Compound 6, (5R)-6-[3-chloro-5-fluoro-4-(morpholin-4-yl)phenyl]-5-methyl-4,5-dihydropyridazin-3(2H)-one]",,,,
